Assay results: ChEMBL document CHEMBL3751719, “D1-like receptors distinguishing thieno-azecine regioisomers” (Medchemcomm, 2015)
Activity calls are given as the source filed them. The rule behind the calls is not given here.

What was measured:
D(1A) dopamine receptor [1] = biological target: T1, D(1A) dopamine receptor (Homo sapiens, UniProt P21728); experiment: Displacement of [3H]SCH-23390 from human cloned D1 dopamine receptor incubated for 90 mins by radioligand binding assay
D(2) dopamine receptor [2] = biological target: T2, D(2) dopamine receptor (Homo sapiens, UniProt P14416); experiment: Displacement of [3H]spiperone from human cloned D2 dopamine receptor incubated for 90 mins by radioligand binding assay
D(3) dopamine receptor [3] = biological target: T3, D(3) dopamine receptor (Homo sapiens, UniProt P35462); experiment: Binding affinity to human cloned D3 dopamine receptor incubated for 90 mins by radioligand binding assay
D(4) dopamine receptor [4] = biological target: T4, D(4) dopamine receptor (Homo sapiens, UniProt P21917); experiment: Binding affinity to human cloned D4 dopamine receptor incubated for 90 mins by radioligand binding assay
T4 sequence (P21917 whole entry): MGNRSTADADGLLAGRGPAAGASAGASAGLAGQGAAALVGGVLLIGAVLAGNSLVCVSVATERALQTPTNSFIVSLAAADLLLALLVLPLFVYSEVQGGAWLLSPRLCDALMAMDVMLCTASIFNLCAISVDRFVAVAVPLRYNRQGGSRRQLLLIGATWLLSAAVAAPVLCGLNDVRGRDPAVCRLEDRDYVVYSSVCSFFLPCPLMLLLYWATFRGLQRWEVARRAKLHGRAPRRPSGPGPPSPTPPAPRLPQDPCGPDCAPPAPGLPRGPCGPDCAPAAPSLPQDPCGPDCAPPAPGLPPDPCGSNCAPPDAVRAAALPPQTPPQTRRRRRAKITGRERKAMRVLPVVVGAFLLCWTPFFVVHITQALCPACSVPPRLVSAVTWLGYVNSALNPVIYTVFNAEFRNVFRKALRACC

D(1B) dopamine receptor [5] = biological target: T5, D(1B) dopamine receptor (Homo sapiens, UniProt P21918); experiment: Binding affinity to human cloned D5 dopamine receptor incubated for 90 mins by radioligand binding assay
D(1A) dopamine receptor [6] = biological target: T1, D(1A) dopamine receptor; experiment: Antagonist activity at human D1 dopamine receptor expressed in HEK293 cells assessed as inhibition of SKF38393-induced intracellular calcium level preincubated at 10 uM by oregon green staining based microplate fluorescence reader analysis; assay type: functional, cell-based
D(2) dopamine receptor [7] = biological target: T2, D(2) dopamine receptor; experiment: Antagonist activity at human D2L dopamine receptor expressed in HEK293 cells assessed as inhibition of quinpirole-induced intracellular calcium level preincubated at 10 uM by oregon green staining based microplate fluorescence reader analysis; assay type: functional, cell-based
D(1B) dopamine receptor [8] = biological target: T5, D(1B) dopamine receptor; experiment: Antagonist activity at human D5 dopamine receptor expressed in HEK293 cells assessed as inhibition of SKF38393-induced intracellular calcium level preincubated at 10 uM by oregon green staining based microplate fluorescence reader analysis; assay type: functional, cell-based
Homo sapiens = species on record: Homo sapiens; experiment: Selectivity index, ratio of Ki for human cloned D1 dopamine receptor to Ki for human cloned D5 dopamine receptor
D(1B) dopamine receptor [9] = biological target: T5, D(1B) dopamine receptor; experiment: Displacement of [3H]SCH-23390 from human cloned D5 dopamine receptor expressed in HEKT cells incubated for 90 mins by scintillation counting based radioligand binding assay; assay type: cell-based
D(1A) dopamine receptor [10] = biological target: T1, D(1A) dopamine receptor; experiment: Displacement of [3H]SCH-23390 from human cloned D1 dopamine receptor expressed in HEKT cells incubated for 90 mins by scintillation counting based radioligand binding assay; assay type: cell-based
D(3) dopamine receptor [11] = biological target: T3, D(3) dopamine receptor; experiment: Displacement of [3H]N-methylspiperone from human cloned D3 dopamine receptor expressed in HEKT cells incubated for 90 mins by scintillation counting based radioligand binding assay; assay type: cell-based
D(4) dopamine receptor [12] = biological target: T4, D(4) dopamine receptor

T1 sequence (P21728 whole entry): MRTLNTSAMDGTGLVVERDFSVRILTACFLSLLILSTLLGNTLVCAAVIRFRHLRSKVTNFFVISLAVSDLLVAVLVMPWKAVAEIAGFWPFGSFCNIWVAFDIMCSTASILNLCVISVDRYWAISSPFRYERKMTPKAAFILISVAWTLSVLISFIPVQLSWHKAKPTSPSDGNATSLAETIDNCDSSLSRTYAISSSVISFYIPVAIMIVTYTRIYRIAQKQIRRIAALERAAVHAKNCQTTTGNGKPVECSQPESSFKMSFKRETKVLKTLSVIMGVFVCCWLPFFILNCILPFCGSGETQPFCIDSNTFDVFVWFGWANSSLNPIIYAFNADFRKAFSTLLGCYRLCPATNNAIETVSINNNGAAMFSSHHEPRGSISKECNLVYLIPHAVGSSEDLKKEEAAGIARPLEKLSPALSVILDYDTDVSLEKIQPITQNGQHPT
T3 sequence (P35462 whole entry): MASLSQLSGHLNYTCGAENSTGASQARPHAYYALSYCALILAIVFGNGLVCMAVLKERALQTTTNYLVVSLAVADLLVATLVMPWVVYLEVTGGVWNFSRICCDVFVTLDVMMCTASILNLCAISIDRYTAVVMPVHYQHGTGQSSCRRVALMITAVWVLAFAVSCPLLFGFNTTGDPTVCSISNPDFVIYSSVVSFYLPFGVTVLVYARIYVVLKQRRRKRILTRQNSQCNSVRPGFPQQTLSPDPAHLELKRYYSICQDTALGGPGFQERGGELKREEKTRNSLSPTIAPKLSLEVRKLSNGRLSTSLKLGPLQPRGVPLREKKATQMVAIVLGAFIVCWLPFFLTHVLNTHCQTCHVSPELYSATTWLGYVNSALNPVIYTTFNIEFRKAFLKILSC
T5 sequence (P21918 whole entry): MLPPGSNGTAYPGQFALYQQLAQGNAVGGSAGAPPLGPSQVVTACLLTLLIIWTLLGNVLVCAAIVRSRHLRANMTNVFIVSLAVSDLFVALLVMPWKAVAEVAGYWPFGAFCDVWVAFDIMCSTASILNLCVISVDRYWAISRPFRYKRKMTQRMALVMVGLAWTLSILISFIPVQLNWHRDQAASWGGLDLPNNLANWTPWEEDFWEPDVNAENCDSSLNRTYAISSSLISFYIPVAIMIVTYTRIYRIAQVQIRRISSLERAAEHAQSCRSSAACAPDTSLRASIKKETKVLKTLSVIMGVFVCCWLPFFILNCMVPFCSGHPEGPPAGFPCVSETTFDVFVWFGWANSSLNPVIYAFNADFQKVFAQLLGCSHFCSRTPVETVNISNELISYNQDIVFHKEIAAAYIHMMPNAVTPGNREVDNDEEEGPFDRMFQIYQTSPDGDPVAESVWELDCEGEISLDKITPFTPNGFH
T2 sequence (P14416 whole entry): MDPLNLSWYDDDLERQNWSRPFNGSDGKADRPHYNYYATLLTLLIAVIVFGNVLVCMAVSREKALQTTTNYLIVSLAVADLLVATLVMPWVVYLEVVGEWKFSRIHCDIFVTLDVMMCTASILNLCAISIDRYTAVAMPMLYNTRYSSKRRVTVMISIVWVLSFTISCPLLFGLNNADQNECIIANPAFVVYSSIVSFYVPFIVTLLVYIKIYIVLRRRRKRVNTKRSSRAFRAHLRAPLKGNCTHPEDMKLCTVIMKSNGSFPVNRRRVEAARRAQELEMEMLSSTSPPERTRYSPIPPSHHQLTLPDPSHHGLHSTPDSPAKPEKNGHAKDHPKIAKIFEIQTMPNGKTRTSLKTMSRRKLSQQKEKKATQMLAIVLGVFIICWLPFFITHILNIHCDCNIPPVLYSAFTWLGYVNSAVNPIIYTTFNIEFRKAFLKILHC

Row | Compound | Ki (D(1A) dopamine receptor [1]) | Ki (D(2) dopamine receptor [2]) | Ki (D(3) dopamine receptor [3]) | Ki (D(4) dopamine receptor [4]) | Ki (D(1B) dopamine receptor [5]) | inhibition (D(1A) dopamine receptor [6]) | inhibition (D(2) dopamine receptor [7]) | inhibition (D(1B) dopamine receptor [8]) | Ratio Ki (Homo sapiens) | Ki (D(1A) dopamine receptor [10]) | Ki (D(3) dopamine receptor [11]) | Ki (D(4) dopamine receptor [12]) | Ki (D(1B) dopamine receptor [9])
1 | Cc1cc2c(s1)Nc1ccccc1N=C2N1CCN(C)CC1 [OLANZAPINE] | – | – | – | – | – | – | – | – | – | – | – | – | 90 nM
2 | CN1CC2c3ccccc3Oc3ccc(Cl)cc3C2C1 (configuration not stated) [ASENAPINE] | – | – | – | – | – | – | – | – | – | 8.9 nM | 9.4 nM | 9 nM | –
3 | CCOC(=O)N1CCc2ccccc2Cc2ccsc2CC1 | > 1000 nM | > 1000 nM | > 1000 nM | > 1000 nM | > 1000 nM | – | – | – | – | – | – | – | –

The next lines start with results.

Row | Ki (D(1A) dopamine receptor [1]) | Ki (D(2) dopamine receptor [2]) | Ki (D(3) dopamine receptor [3]) | Ki (D(4) dopamine receptor [4]) | Ki (D(1B) dopamine receptor [5]) | inhibition (D(1A) dopamine receptor [6]) | inhibition (D(2) dopamine receptor [7]) | inhibition (D(1B) dopamine receptor [8]) | Ratio Ki (Homo sapiens) | Ki (D(1A) dopamine receptor [10]) | Ki (D(3) dopamine receptor [11]) | Ki (D(4) dopamine receptor [12]) | Compound | Ki (D(1B) dopamine receptor [9])
4 | 40 nM | 1.5 nM | 18 nM | 72 nM | 1.9 nM | Active | Active | Active | 20 | – | – | – | CN1CCc2ccccc2Cc2sc3ccccc3c2CC1 | –
5 | 60 nM | 45 nM | 24 nM | 188 nM | 3 nM | Active | Active | Active | 20 | – | – | – | CN1CCc2ccccc2Cc2sccc2CC1 | –
6 | > 1000 nM | > 1000 nM | > 1000 nM | > 1000 nM | > 1000 nM | – | – | – | – | – | – | – | CCOC(=O)N1CCc2ccccc2Cc2sccc2CC1 | –
7 | > 1000 nM | > 1000 nM | > 1000 nM | > 1000 nM | > 1000 nM | – | – | – | – | – | – | – | CCOC(=O)N1CCc2ccccc2Cc2sc3ccccc3c2CC1 | –
